Results published in the Deep4Chem optical property database.
One block for each compound: values may come before it.

Experiment: solvent given as SMILES
[1] = in c1cc(-n2c3ccccc3c3ccccc32)cc(-n2c3ccccc3c3ccccc32)c1

fluorescence lifetime [1]: 86 ns
Structure (SMILES): N#Cc1cc(-n2c3ccccc3c3cccnc32)c(-n2c3ccccc3c3cccnc32)cc1C#N

fluorescence lifetime (in c1ccccc1): 2.1 ns
Structure (SMILES): COc1ccc(-c2nc3c(ccc4ccccc43)oc2=O)cc1

fluorescence lifetime (in ClCCl): 2.7 ns
Structure (SMILES): c1ccc(N(c2ccccc2)c2ccc(N(c3ccccc3)c3ccc4ccc5c(N(c6ccccc6)c6ccc(N(c7ccccc7)c7ccccc7)cc6)ccc6ccc3c4c65)cc2)cc1

Structure (SMILES): CC1(C)OB(c2cc3ccc4cccc5ccc(c2)c3c45)OC1(C)C
fluorescence lifetime (in Cc1ccccc1): 82 ns

Structure (SMILES): Cn1c(/C=C/c2ccc(/C=C/c3nc4ccccc4[nH]3)cc2)[n+](C)c2ccccc21
fluorescence lifetime (in C1CCOC1): 1.43 ns
fluorescence lifetime (in CC#N): 1.16 ns
fluorescence lifetime (in CC(C)=O): 1.15 ns
fluorescence lifetime (in CN(C)C=O): 1.11 ns
fluorescence lifetime (in CO): 0.773 ns
fluorescence lifetime (in CS(C)=O): 1.22 ns
fluorescence lifetime (in O): 0.42 ns

Structure (SMILES): c1ccc(-c2nc(-c3ccccc3)nc(-c3ccc(-n4c5ccccc5c5cc6c(cc54)C4c5ccccc5C6c5ccccc54)cc3)n2)cc1
fluorescence lifetime (in O=P(c1ccccc1)(c1ccccc1)c1ccccc1Oc1ccccc1P(=O)(c1ccccc1)c1ccccc1): 9 ns

Structure (SMILES): CCN(CC)c1ccc2cc(/C(Cl)=C/C=C/C(=C(C#N)C#N)c3ccc(N(c4ccccc4)c4ccccc4)cc3)c(=O)oc2c1
fluorescence lifetime (in CC(C)=O): 1.51 ns
fluorescence lifetime (in CCOC(C)=O): 2.42 ns
fluorescence lifetime (in CN(C)C=O): 0.21 ns
fluorescence lifetime (in CS(C)=O): 0.18 ns
fluorescence lifetime (in Cc1ccccc1): 1.95 ns
fluorescence lifetime (in ClCCl): 1.56 ns

fluorescence lifetime (in CCCCCC): 50.6 ns
fluorescence lifetime (in CO): 149 ns
fluorescence lifetime (in ClCCl): 77.8 ns
Structure (SMILES): CC(C)c1ccc2ccc3cccc4ccc1c2c34

fluorescence lifetime (in ClCCl): 0.423 ns
Structure (SMILES): FC(F)(F)c1ccc(/C2=C3N=C(C(c4ccccc4)=C/3c3ccccc3)/C(c3ccc(C(F)(F)F)cc3)=c3\[nH]/c(c(-c4ccccc4)c3-c3ccccc3)=C(/c3ccc(C(F)(F)F)cc3)C3=N/C(=C(/c4ccc(C(F)(F)F)cc4)c4[nH]c2c(-c2ccccc2)c4-c2ccccc2)C(c2ccccc2)=C3c2ccccc2)cc1

fluorescence lifetime (in ClCCl): 37.1 ns
Structure (SMILES): CC(C)(C)c1ccc(C#Cc2cc3ccc4cc(C#Cc5ccc(C(C)(C)C)cc5)cc5ccc(c2)c3c45)cc1

fluorescence lifetime (in ClCCl): 7.6 ns
Structure (SMILES): O=[N+]([O-])c1ccc([N+]2=Cc3ccc4ccccc4c3O[B-]2(F)F)cc1

fluorescence lifetime [1]: 9.7 ns
Structure (SMILES): CC(C)(C)c1ccc2c(c1)c1cc(C(C)(C)C)ccc1n2-c1ccccc1-c1nccnc1C#N

Structure (SMILES): CN(C)c1ccc(C2=Nc3sc4cc(F)ccc4[n+]3[B-](F)(F)O2)cc1
fluorescence lifetime (in Cc1ccccc1): 1.68 ns

Structure (SMILES): CCOc1ccc(/C=C/C=C/C=C/c2ccc([N+](=O)[O-])cc2)cc1
fluorescence lifetime (in Cc1ccccc1): 1.5 ns

Structure (SMILES): COC(=O)/C(C#N)=c1\s/c(=c2/s/c(=C(/C#N)C(=O)OC)c3cc(-c4ccc5c(c4)C(C)(C)c4ccccc4-5)sc23)c2sc(-c3ccc4c(c3)C(C)(C)c3ccccc3-4)cc12
fluorescence lifetime (in Cc1ccccc1): 4.38 ns

Structure (SMILES): COc1ccc(C2=C3C(C)=CC(C)=[N+]3[B-](F)(F)n3c(C)cc(C)c32)cc1
fluorescence lifetime (in Cc1ccccc1): 4.86 ns

fluorescence lifetime (in CC#N): 5.7 ns
Structure (SMILES): Cc1c2ccc3c(C)[n+](C)ccc3c2cc[n+]1C

fluorescence lifetime (in CCC(C)C): 0.38 ns
Structure (SMILES): CCCCCCCCCCc1cc(-c2cc(CCCCCCCCCC)c(-c3cccs3)s2)sc1-c1cccs1

fluorescence lifetime (in CC#N): 4.18 ns
fluorescence lifetime (in CC(C)O): 3.96 ns
fluorescence lifetime (in CCCCCCCCO): 3.83 ns
fluorescence lifetime (in CCCCCCO): 3.88 ns
fluorescence lifetime (in CCCCO): 3.89 ns
fluorescence lifetime (in CCCO): 3.95 ns
fluorescence lifetime (in CCO): 3.96 ns
fluorescence lifetime (in CN(C)C=O): 3.86 ns
fluorescence lifetime (in CO): 3.7 ns
fluorescence lifetime (in O): 4.22 ns
fluorescence lifetime (in [2H]O[2H]): 4.36 ns
Structure (SMILES): CCNc1cc2oc3c/c(=[NH+]\CC)c(C)cc-3c(-c3ccccc3C(=O)OCC)c2cc1C

fluorescence lifetime (in C1CCOC1): 0.5 ns
Structure (SMILES): COc1ccc(C(=Cc2ccc(/C=C(\C#N)c3ccccc3)cc2)c2ccc(OC)cc2)cc1

fluorescence lifetime (in c1cc(-c2cccc(-n3c4ccccc4c4ccccc43)c2)cc(-n2c3ccccc3c3ccccc32)c1): 24 ns
Structure (SMILES): O=C(c1ccc(N2c3ccccc3Oc3ccccc32)cc1)c1cccc(C(=O)c2ccc(N3c4ccccc4Oc4ccccc43)cc2)c1

Structure (SMILES): N#Cc1c(-n2c3ccc(-c4ccccc4)cc3c3cc(-c4ccccc4)ccc32)c(-n2c3ccccc3c3ccccc32)c(-n2c3ccc(-c4ccccc4)cc3c3cc(-c4ccccc4)ccc32)c(-n2c3ccccc3c3ccccc32)c1-n1c2ccc(-c3ccccc3)cc2c2cc(-c3ccccc3)ccc21
fluorescence lifetime (in Cc1ccccc1): 5.2 ns

fluorescence lifetime (in C1COCCO1): 1.22 ns
Structure (SMILES): c1ccc(-c2nc(-c3nc(-c4ccccc4)c(-c4ccccc4)o3)oc2-c2ccccc2)cc1

Structure (SMILES): CC1(C)C(/C=C/C2=C(c3ccc(C(=O)O)cc3)C(=C/C=C3/N(CCCCS(=O)(=O)[O-])c4ccccc4C3(C)C)/CC2)=[N+](CCCCS(=O)(=O)[O-])c2ccccc21
fluorescence lifetime (in CC(C)=O): 1.13 ns
fluorescence lifetime (in CCO): 0.87 ns
fluorescence lifetime (in CO): 0.83 ns
fluorescence lifetime (in CS(C)=O): 1.11 ns
fluorescence lifetime (in ClC(Cl)Cl): 1.25 ns
fluorescence lifetime (in ClCCl): 1.17 ns
fluorescence lifetime (in O): 0.36 ns

fluorescence lifetime (in CS(C)=O): 0.06 ns
Structure (SMILES): CC(=O)Nc1ccc(S(=O)(=O)O)c(/N=N/c2c(O)c3ccccc3n(C)c2=O)c1

fluorescence lifetime (in CC#N): 5.8 ns
Structure (SMILES): C[n+]1cc2ccc3c[n+](C)c4ccccc4c3c2c2ccccc21

Structure (SMILES): Cc1c(C)c(N2c3ccccc3Oc3ccccc32)c(C)c(C)c1B(c1c(C)c(C)c(N2c3ccccc3Oc3ccccc32)c(C)c1C)c1c(C)c(C)c(N2c3ccccc3Oc3ccccc32)c(C)c1C
fluorescence lifetime (in CC(C)(C)c1ccc(-n2c3ccc([Si](c4ccccc4)(c4ccccc4)c4ccccc4)cc3c3cc([Si](c4ccccc4)(c4ccccc4)c4ccccc4)ccc32)cc1): 1.3 ns

Structure (SMILES): CCCCCCC(CCCCCC)N1C(=O)c2cccc3c(-c4ccc(N(C)C)cc4)ccc(c23)C1=O
fluorescence lifetime (in CCCCCC): 3.47 ns
fluorescence lifetime (in CCCCCCCCCCCCCC): 3.61 ns
fluorescence lifetime (in CCCCCCCCCCCO): 5.51 ns
fluorescence lifetime (in CCCCO): 3.5 ns
fluorescence lifetime (in Cc1ccccc1): 5.12 ns
fluorescence lifetime (in ClC(Cl)Cl): 6.99 ns

Structure (SMILES): N#Cc1nc2c3ccc(N(c4ccccc4)c4ccccc4)cc3c3cc(N(c4ccccc4)c4ccccc4)ccc3c2nc1C#N
fluorescence lifetime (in O=P(c1ccccc1)(c1ccccc1)c1cccc(-c2cc(-n3c4ccccc4c4ccccc43)cc(-n3c4ccccc4c4ccccc43)c2)n1): 13.4 ns

fluorescence lifetime (in C1CCCCC1): 9 ns
Structure (SMILES): C[Si](C)(C)C#Cc1cccc2ccccc12

fluorescence lifetime (in C1CCOC1): 2.43 ns
Structure (SMILES): COc1cc2c(cc1-c1ccc(C(F)(F)F)cc1)Cc1c3c(c4c(c1-2)-c1cc(OC)c(-c2ccc(C(F)(F)F)cc2)cc1C4)C(=O)N(CCC(C)C)C3=O

fluorescence lifetime (in ClCCl): 3 ns
Structure (SMILES): O=P1(c2ccccc2)C(c2ccc(C(F)(F)F)cc2)=Cc2cc3ccccc3cc21 (stereo not given)

fluorescence lifetime (in C1CCCCC1): 3.3 ns
fluorescence lifetime (in ClCCl): 2.5 ns
Structure (SMILES): CC(C)[Si]1(C(C)C)c2cc(N(C)C)ccc2-c2ccc(C(F)(F)F)cc21

fluorescence lifetime (in CO): 0.843 ns
Structure (SMILES): CC1(C)C(/C=C/C2=C(Oc3ccc(CCN=C=S)cc3F)C(=C/C=C3/N(CCCS(=O)(=O)[O-])c4ccccc4C3(C)C)/CCC2)=[N+](CCCS(=O)(=O)[O-])c2ccccc21

Structure (SMILES): COc1ccc(/C=C/C2=CC(/C=C/c3ccc(OC)cc3)=[O+][B-](OC(C)=O)(OC(C)=O)O2)cc1
fluorescence lifetime (in C1CCOC1): 2.38 ns
fluorescence lifetime (in CC#N): 2.09 ns
fluorescence lifetime (in CC(C)=O): 2.29 ns
fluorescence lifetime (in CS(C)=O): 2.26 ns
fluorescence lifetime (in Cc1ccccc1): 2.45 ns
fluorescence lifetime (in ClC(Cl)Cl): 2.52 ns
fluorescence lifetime (in ClCCl): 2.63 ns

fluorescence lifetime (in ClC(Cl)Cl): 2.34 ns
Structure (SMILES): CN(C)c1ccc(C2=Cc3c4ccccc4cc[n+]3[B-](F)(F)O2)cc1

fluorescence lifetime (in CCCCCCC): 122 ns
Structure (SMILES): Clc1nc(Cl)nc(Nc2cc3ccc4cccc5ccc(c2)c3c45)n1

fluorescence lifetime (in ClCCl): 1.31 ns
Structure (SMILES): COC(=O)c1cc(=O)n(C)c2cc(-c3ccccc3OC)sc12

fluorescence lifetime (in ClCCl): 7.7 ns
Structure (SMILES): COc1ccc(C#Cc2c3cc4cc(C)sc4cc3c(C#Cc3ccc(OC)cc3)c3cc4cc(C)sc4cc23)cc1

fluorescence lifetime (in C1COCCO1): 0.07 ns
fluorescence lifetime (in CC#N): 0.27 ns
fluorescence lifetime (in CCO): 0.21 ns
fluorescence lifetime (in OCC(F)(F)F): 0.72 ns
Structure (SMILES): Cc1cc(=O)oc2c1cc(Cl)c1occ(C)c12

fluorescence lifetime (in CCO): 0.47 ns
fluorescence lifetime (in ClC(Cl)Cl): 2.87 ns
fluorescence lifetime (in O): 0.16 ns
Structure (SMILES): CC[N+](CC)=c1ccc2c(-c3ccccc3C(=O)O)c3c(=O)oc4c5c6c(cc4c3oc-2c1)CCCN6CCC5

Structure (SMILES): CC1(C)c2ccccc2N(c2ccc(C(=O)c3cc(C(=O)c4ccc(N5c6ccccc6C(C)(C)c6ccccc65)cc4)cc(C(=O)c4ccc(N5c6ccccc6C(C)(C)c6ccccc65)cc4)c3)cc2)c2ccccc21
fluorescence lifetime (in Cc1ccccc1): 16.7 ns
fluorescence lifetime (in c1ccc2c(c1)c1ccccc1n2-c1ccc(-c2ccc(-n3c4ccccc4c4ccccc43)cc2)cc1): 25.8 ns

Structure (SMILES): CCCCCCC(CCCCCC)N1C(=O)c2cccc3c(-c4ccc(OC)cc4)ccc(c23)C1=O
fluorescence lifetime (in CCCCCC): 2.65 ns
fluorescence lifetime (in CCCCCCCCCCCCCC): 3.12 ns
fluorescence lifetime (in CCCCCCCCCCCO): 4.78 ns
fluorescence lifetime (in CCCCO): 5.18 ns
fluorescence lifetime (in CN(C)C=O): 5.24 ns
fluorescence lifetime (in Cc1ccccc1): 3.5 ns
fluorescence lifetime (in ClC(Cl)Cl): 4.11 ns

Structure (SMILES): COc1ccc(C2=C3C(C)=CC(C=Cc4ccc(C(=O)OC5C[C@H]6CCC5(C)C6(C)C)cc4)=[N+]3[B-](F)(F)n3c(C)cc(C)c32)cc1 (stereo not given in full)
fluorescence lifetime (in Cc1ccccc1): 3.82 ns

Structure (SMILES): Cc1ccc(C2=C3C=CC(/C=C/c4ccccc4)=[N+]3[B-](F)(F)n3c(Cl)ccc32)cc1
fluorescence lifetime (in C1CCCCC1): 3.64 ns
fluorescence lifetime (in C1CCOC1): 3.45 ns
fluorescence lifetime (in C1COCCO1): 3.68 ns
fluorescence lifetime (in CCOC(C)=O): 3.43 ns
fluorescence lifetime (in CO): 3.16 ns
fluorescence lifetime (in Cc1ccccc1): 3.68 ns
fluorescence lifetime (in ClC(Cl)Cl): 3.98 ns

fluorescence lifetime (in ClC(Cl)Cl): 0.6 ns
Structure (SMILES): C[Si](C)(C)C#CC(C#C[Si](C)(C)C)=Cc1ccc(C=C(C#C[Si](C)(C)C)C#C[Si](C)(C)C)cc1

fluorescence lifetime (in CC#N): 5.5 ns
Structure (SMILES): O=C(O)c1ccccc1-c1nc(-c2ccccc2)c2ccccn12

fluorescence lifetime (in O): 15 ns
Structure (SMILES): O=S(=O)([O-])c1ccc([O-])c2ccccc12

fluorescence lifetime (in ClC(Cl)Cl): 4.6 ns
Structure (SMILES): COc1cc2c3cc(OC)c(OC)cc3c3cc4c(C)cc(=O)oc4cc3c2cc1OC

fluorescence lifetime (in ClCCl): 0.29 ns
Structure (SMILES): CC(C)(C)c1ccc2c(c1)c1cc(C(C)(C)C)ccc1n2-c1ccc(C#Cc2ccc3c4ccc(C#Cc5ccc(C=C(C#N)C#N)cc5)cc4n(-c4ccc(C(F)(F)F)cc4)c3c2)cc1

fluorescence lifetime (in C1CCOC1): 8.98 ns
fluorescence lifetime (in CO): 15.1 ns
Structure (SMILES): CCOC(=O)C1=CN(c2ccccc2)C=C(C(=O)OCC)C1c1ccccc1

fluorescence lifetime (in CC#N): 273 ns
Structure (SMILES): COC(=O)C12N=N[C@](C(=O)OC)(C3C4CCC(C4)C31)C1[C@@H]3CC[C@@H](C3)[C@H]12 (stereo not given in full)

fluorescence lifetime (in O): 3 ns
Structure (SMILES): CCOC(=O)c1c(CSc2ccccc2)n(C)c2cc(Br)c(O)c(CN(C)C)c12

fluorescence lifetime (in CC#N): 0.23 ns
fluorescence lifetime (in CCCCCC): 0.2 ns
Structure (SMILES): Nc1ccc(/C=C/c2ccc3ccccc3c2)cc1
